Columns and labels:
Test in all cases: Test E greenhouse herbicide test, pre- and postemergence
Type in all cases: in vivo
[1] = tested on: arrowleaf sida (Sida rhombifolia)
Source text: (§1) Seeds of plant species selected from corn (Zea mays), soybean (Glycine max), velvetleaf (Abutilon theophrasti), lambsquarters (Chenopodium album), wild poinsettia (Euphorbia heterophylla), pigweed, palmer (palmer pigweed, Amaranthus palmeri), waterhemp (common waterhemp, Amaranthus rudis), surinam grass (Brachiaria decumbens), crabgrass, large (large crabgrass, Digitaria sanguinalis), crabgrass, Brazilian (Brazilian crabgrass, Digitaria horizontalis), panicum, fall (fall panicum, Panicum dichotomiflorum), foxtail, giant (giant foxtail, Setaria faberii), foxtail, green (green foxtail, Setaria viridis), goosegrass (Eleusine indica), johnsongrass (Sorghum halepense), ragweed (common ragweed, Ambrosia elatior), barnyardgrass (Echinochloa crus-galli), sandbur (southem sandbur, Cenchrus echinatus), arrowleaf sida (Sida rhombifolia), Italian ryegrass (Lolium multiflorum), dayflower (Virginia (VA) dayflower, Commelina virginica), field bindweed (Convolvulus arvensis), momingglory (Ipomoea coccinea), nightshade (eastern black nightshade, Solanum ptycanthum), kochia (Kochia scoparia), nutsedge, yellow (yellow nutsedge, Cyperus esculentus), horseweed (Conyza canadensis), and beggarticks (hairy beggarticks, Bidens pilosa), were planted into a silt loam soil and treated preemergence with test chemicals formulated in a non-phytotoxic solvent mixture which included a surfactant.
(§2) At the same time, plants from these crop and weed species and also waterhemp_RES1, (ALS & Triazine resistant common waterhemp, Amaranthus rudis), and waterhemp_RES2, (ALS & HPPD resistant common waterhemp, Amaranthus rudis) were planted in pots containing Redi-Earth® planting medium (Scotts Company, 14111 Scottslawn Road, Marysville, Ohio 43041) comprising spaghnum peat moss, vermiculite, wetting agent and starter nutrients were treated with postemergence applications of test chemicals formulated in the same manner. Plants ranged in height from 2 to 18 cm for postemergence treatments (1- to 4-leaf stage). Treated plants and controls were maintained in a greenhouse for 14 to 21 d, after which time all species were compared to controls and visually evaluated. Plant response ratings, summarized in Table E, are based on a scale of 0 to 100 where 0 is no effect and 100 is complete control. A dash (-) response means no test result.

[2] = tested on: barnyardgrass (Echinochloa crus-galli)
Source text: as §1, §2

corn (Zea mays) = tested on: corn (Zea mays)
Source text: as §1, §2

[3] = tested on: crabgrass, Brazilian (Brazilian crabgrass, Digitaria horizontalis)
Source text: as §1, §2

[4] = tested on: dayflower (Virginia (VA) dayflower, Commelina virginica)
Source text: as §1, §2

[5] = tested on: field bindweed (Convolvulus arvensis)
Source text: as §1, §2

[6] = tested on: foxtail, green (green foxtail, Setaria viridis); settings: Preemergence
Source text: as §1, §2

[7] = tested on: goosegrass (Eleusine indica); settings: Preemergence
Source text: as §1, §2

[8] = tested on: horseweed (Conyza canadensis); settings: Preemergence
Source text: as §1, §2

[9] = tested on: lambsquarters (Chenopodium album); settings: Preemergence
Source text: as §1, §2

[10] = tested on: nightshade (eastern black nightshade, Solanum ptycanthum); settings: Preemergence
Source text: as §1, §2

[11] = tested on: panicum, fall (fall panicum, Panicum dichotomiflorum)
Source text: as §1, §2

[12] = tested on: pigweed, palmer (palmer pigweed, Amaranthus palmeri)
Source text: as §1, §2

[13] = tested on: ragweed (common ragweed, Ambrosia elatior)
Source text: as §1, §2

soybean (Glycine max) = tested on: soybean (Glycine max)
Source text: as §1, §2

[14] = tested on: surinam grass (Brachiaria decumbens); settings: Preemergence
Source text: as §1, §2

[15] = 62 g ai/ha, Postemergence, scale 0 to 100 (0 no effect, 100 complete control)
[16] = 62 g ai/ha, Preemergence, scale 0 to 100 (0 no effect, 100 complete control)
[17] = 125 g ai/ha, Postemergence, scale 0 to 100 (0 no effect, 100 complete control)
[18] = 250 g ai/ha, Postemergence, scale 0 to 100 (0 no effect, 100 complete control)
[19] = Postemergence, 31 g ai/ha, visual, scale 0 no effect to 100 complete control
[20] = Preemergence, 31 g ai/ha, scale 0 to 100, 0 no effect, 100 complete control
[21] = Preemergence, 125 g ai/ha, visual, scale 0 no effect to 100 complete control
[22] = Preemergence, 250 g ai/ha, visual, scale 0 no effect to 100 complete control
[23] = 62 g ai/ha, scale 0 to 100 (0 no effect, 100 complete control)
[24] = 31 g ai/ha, scale 0 to 100, 0 no effect, 100 complete control
[25] = 125 g ai/ha, visual, scale 0 no effect to 100 complete control
[26] = 250 g ai/ha, visual, scale 0 no effect to 100 complete control
[27] = 125 g ai/ha, scale 0 to 100 (0 no effect, 100 complete control)
[28] = 125 g ai/ha, Preemergence, scale 0 to 100 (0 no effect, 100 complete control)

CC(=O)Oc1c(C)nn(C)c(=O)c1-c1c(C)sc2ccc(C)cc12 [Compound 25]
Plant response rating, Arrowleaf Sida [1, 15]: 75 | Plant response rating, Arrowleaf Sida [1, 16]: 80 | Plant response rating, Arrowleaf Sida [1, 17]: 80 | Plant response rating, Arrowleaf Sida [1, 18]: 85 | Plant response rating, Arrowleaf Sida [1, 19]: 60 | Plant response rating, Arrowleaf Sida [1, 20]: 40 | Plant response rating, Arrowleaf Sida [1, 21]: 90 | Plant response rating, Arrowleaf Sida [1, 22]: 95 | Plant response rating, Barnyardgrass [2, 15]: 50 | Plant response rating, Barnyardgrass [2, 16]: 60 | Plant response rating, Barnyardgrass [2, 17]: 50 | Plant response rating, Barnyardgrass [2, 18]: 50 | Plant response rating, Barnyardgrass [2, 19]: 40 | Plant response rating, Barnyardgrass [2, 20]: 20 | Plant response rating, Barnyardgrass [2, 21]: 60 | Plant response rating, Barnyardgrass [2, 22]: 90 | Plant response rating, Corn (corn (Zea mays); [15]): 20 | Plant response rating, Corn (corn (Zea mays); [16]): 0 | Plant response rating, Corn (corn (Zea mays); [17]): 20 | Plant response rating, Corn (corn (Zea mays); [18]): 15 | Plant response rating, Corn (corn (Zea mays); [19]): 10 | Plant response rating, Corn (corn (Zea mays); [20]): 0 | Plant response rating, Corn (corn (Zea mays); [21]): 0 | Plant response rating, Corn (corn (Zea mays); [22]): 0 | Plant response rating, Crabgrass, Brazil [3, 15]: 40 | Plant response rating, Crabgrass, Brazil [3, 16]: 90 | Plant response rating, Crabgrass, Brazil [3, 17]: 50 | Plant response rating, Crabgrass, Brazil [3, 18]: 50 | Plant response rating, Crabgrass, Brazil [3, 19]: 30 | Plant response rating, Crabgrass, Brazil [3, 20]: 75 | Plant response rating, Crabgrass, Brazil [3, 21]: 95 | Plant response rating, Crabgrass, Brazil [3, 22]: 95 | Plant response rating, Dayflower, VA [4, 15]: 40 | Plant response rating, Dayflower, VA [4, 16]: 5 | Plant response rating, Dayflower, VA [4, 17]: 50 | Plant response rating, Dayflower, VA [4, 18]: 65 | Plant response rating, Dayflower, VA [4, 19]: 10 | Plant response rating, Dayflower, VA [4, 20]: 0 | Plant response rating, Dayflower, VA [4, 21]: 15 | Plant response rating, Dayflower, VA [4, 22]: 30 | Plant response rating, Field Bindweed [5, 15]: 95 | Plant response rating, Field Bindweed [5, 16]: 98 | Plant response rating, Field Bindweed [5, 17]: 95 | Plant response rating, Field Bindweed [5, 18]: 90 | Plant response rating, Field Bindweed [5, 19]: 90 | Plant response rating, Field Bindweed [5, 20]: 80 | Plant response rating, Field Bindweed [5, 21]: 60 | Plant response rating, Field Bindweed [5, 22]: 98 | Plant response rating, Foxtail, Green [6, 23]: 98 | Plant response rating, Foxtail, Green [6, 24]: 65 | Plant response rating, Foxtail, Green [6, 25]: 98 | Plant response rating, Foxtail, Green [6, 26]: 100 | Plant response rating, Goosegrass [7, 23]: 65 | Plant response rating, Goosegrass [7, 24]: 20 | Plant response rating, Goosegrass [7, 25]: 80 | Plant response rating, Goosegrass [7, 26]: 90 | Plant response rating, Horseweed [8, 23]: 100 | Plant response rating, Horseweed [8, 24]: 100 | Plant response rating, Horseweed [8, 25]: 100 | Plant response rating, Horseweed [8, 26]: 100 | Plant response rating, Lambsquarters [9, 23]: 100 | Plant response rating, Lambsquarters [9, 24]: 98 | Plant response rating, Lambsquarters [9, 25]: 100 | Plant response rating, Lambsquarters [9, 26]: 100 | Plant response rating, Nightshade [10, 23]: 80 | Plant response rating, Nightshade [10, 27]: 95 | Plant response rating, Nightshade [10, 24]: 90 | Plant response rating, Nightshade [10, 26]: 98 | Plant response rating, Panicum, Fall [11, 15]: 50 | Plant response rating, Panicum, Fall [11, 16]: 100 | Plant response rating, Panicum, Fall [11, 17]: 80 | Plant response rating, Panicum, Fall [11, 28]: 100 | Plant response rating, Panicum, Fall [11, 18]: 90 | Plant response rating, Panicum, Fall [11, 19]: 50 | Plant response rating, Panicum, Fall [11, 20]: 95 | Plant response rating, Panicum, Fall [11, 22]: 100 | Plant response rating, Pigweed, Palmer [12, 15]: 80 | Plant response rating, Pigweed, Palmer [12, 16]: 90 | Plant response rating, Pigweed, Palmer [12, 17]: 100 | Plant response rating, Pigweed, Palmer [12, 28]: 100 | Plant response rating, Pigweed, Palmer [12, 18]: 85 | Plant response rating, Pigweed, Palmer [12, 19]: 75 | Plant response rating, Pigweed, Palmer [12, 20]: 65 | Plant response rating, Pigweed, Palmer [12, 22]: 100 | Plant response rating, Ragweed [13, 15]: 90 | Plant response rating, Ragweed [13, 16]: 95 | Plant response rating, Ragweed [13, 17]: 90 | Plant response rating, Ragweed [13, 28]: 98 | Plant response rating, Ragweed [13, 18]: 95 | Plant response rating, Ragweed [13, 19]: 90 | Plant response rating, Ragweed [13, 20]: 75 | Plant response rating, Ragweed [13, 22]: 100 | Plant response rating, Soybean (soybean (Glycine max); [15]): 20 | Plant response rating, Soybean (soybean (Glycine max); [17]): 30 | Plant response rating, Soybean (soybean (Glycine max); [28]): 0 | Plant response rating, Soybean (soybean (Glycine max); [18]): 75 | Plant response rating, Soybean (soybean (Glycine max); [19]): 0 | Plant response rating, Soybean (soybean (Glycine max); [20]): 0 | Plant response rating, Soybean (soybean (Glycine max); [22]): 70 | Plant response rating, Surinam Grass [14, 23]: 80 | Plant response rating, Surinam Grass [14, 27]: 90 | Plant response rating, Surinam Grass [14, 24]: 65 | Plant response rating, Surinam Grass [14, 26]: 95

C#CCOC(=O)Oc1c(C)nn(C)c(=O)c1-c1c(C)sc2ccc(C)cc12 [Compound 87]
Plant response rating, Arrowleaf Sida [1, 16]: 60 | Plant response rating, Arrowleaf Sida [1, 28]: 70 | Plant response rating, Arrowleaf Sida [1, 20]: 0 | Plant response rating, Arrowleaf Sida [1, 22]: 80 | Plant response rating, Barnyardgrass [2, 16]: 0 | Plant response rating, Barnyardgrass [2, 28]: 10 | Plant response rating, Barnyardgrass [2, 20]: 0 | Plant response rating, Barnyardgrass [2, 22]: 35 | Plant response rating, Corn (corn (Zea mays); [16]): 0 | Plant response rating, Corn (corn (Zea mays); [28]): 20 | Plant response rating, Corn (corn (Zea mays); [20]): 0 | Plant response rating, Corn (corn (Zea mays); [22]): 15 | Plant response rating, Crabgrass, Brazil [3, 16]: 80 | Plant response rating, Crabgrass, Brazil [3, 28]: 90 | Plant response rating, Crabgrass, Brazil [3, 20]: 60 | Plant response rating, Crabgrass, Brazil [3, 22]: 100 | Plant response rating, Dayflower, VA [4, 16]: 0 | Plant response rating, Dayflower, VA [4, 28]: 10 | Plant response rating, Dayflower, VA [4, 20]: 0 | Plant response rating, Dayflower, VA [4, 22]: 35 | Plant response rating, Field Bindweed [5, 16]: 98 | Plant response rating, Field Bindweed [5, 28]: 95 | Plant response rating, Field Bindweed [5, 20]: 40 | Plant response rating, Field Bindweed [5, 22]: 100 | Plant response rating, Foxtail, Green [6, 23]: 20 | Plant response rating, Foxtail, Green [6, 27]: 60 | Plant response rating, Foxtail, Green [6, 24]: 20 | Plant response rating, Foxtail, Green [6, 26]: 80 | Plant response rating, Goosegrass [7, 23]: 0 | Plant response rating, Goosegrass [7, 27]: 60 | Plant response rating, Goosegrass [7, 24]: 0 | Plant response rating, Goosegrass [7, 26]: 75 | Plant response rating, Lambsquarters [9, 23]: 100 | Plant response rating, Lambsquarters [9, 27]: 100 | Plant response rating, Lambsquarters [9, 24]: 100 | Plant response rating, Lambsquarters [9, 26]: 100 | Plant response rating, Nightshade [10, 23]: 90 | Plant response rating, Nightshade [10, 27]: 98 | Plant response rating, Nightshade [10, 24]: 50 | Plant response rating, Nightshade [10, 26]: 98 | Plant response rating, Panicum, Fall [11, 16]: 90 | Plant response rating, Panicum, Fall [11, 28]: 100 | Plant response rating, Panicum, Fall [11, 20]: 95 | Plant response rating, Panicum, Fall [11, 22]: 98 | Plant response rating, Pigweed, Palmer [12, 16]: 65 | Plant response rating, Pigweed, Palmer [12, 28]: 75 | Plant response rating, Pigweed, Palmer [12, 20]: 0 | Plant response rating, Pigweed, Palmer [12, 22]: 90 | Plant response rating, Ragweed [13, 16]: 95 | Plant response rating, Ragweed [13, 28]: 98 | Plant response rating, Ragweed [13, 20]: 98 | Plant response rating, Ragweed [13, 22]: 100 | Plant response rating, Soybean (soybean (Glycine max); [16]): 0 | Plant response rating, Soybean (soybean (Glycine max); [28]): 0 | Plant response rating, Soybean (soybean (Glycine max); [20]): 0 | Plant response rating, Soybean (soybean (Glycine max); [22]): 0 | Plant response rating, Surinam Grass [14, 23]: 15 | Plant response rating, Surinam Grass [14, 27]: 80 | Plant response rating, Surinam Grass [14, 24]: 10 | Plant response rating, Surinam Grass [14, 26]: 75

From patent publication US10597388B2, “Pyridazinone herbicides” (FMC CORPORATION, priority 2014, dated 2020)
